By IC50 is commonly meant the point on the concentration scale where inhibition reaches its midpoint. A higher IC50 goes with weaker potency.

The source of these data is US6172056A, “Pharmaceutical compositions and method for prophylaxis and therapy of radical-mediated cell damage” (Jenapharm GmbH & Co. KG, priority 1993, dated 2001).

Assay [1] deals with lipid peroxidation (synaptosomal membrane fraction, Fenton's reagent). The assay can be described thus: In vitro inhibition of lipid peroxidation, thiobarbituric acid test. The assay is classed as biochemical. As to conditions: 30 min at 37° C.
Assay [2] deals with T1, estrogen receptor (Oryctolagus cuniculus, UniProt G1SML6).
T1 construct: in uterine cytosol of the infantile rabbit; from tissue; host or cells: uterine cytosol of infantile rabbit
T1 sequence (G1SML6 1-598): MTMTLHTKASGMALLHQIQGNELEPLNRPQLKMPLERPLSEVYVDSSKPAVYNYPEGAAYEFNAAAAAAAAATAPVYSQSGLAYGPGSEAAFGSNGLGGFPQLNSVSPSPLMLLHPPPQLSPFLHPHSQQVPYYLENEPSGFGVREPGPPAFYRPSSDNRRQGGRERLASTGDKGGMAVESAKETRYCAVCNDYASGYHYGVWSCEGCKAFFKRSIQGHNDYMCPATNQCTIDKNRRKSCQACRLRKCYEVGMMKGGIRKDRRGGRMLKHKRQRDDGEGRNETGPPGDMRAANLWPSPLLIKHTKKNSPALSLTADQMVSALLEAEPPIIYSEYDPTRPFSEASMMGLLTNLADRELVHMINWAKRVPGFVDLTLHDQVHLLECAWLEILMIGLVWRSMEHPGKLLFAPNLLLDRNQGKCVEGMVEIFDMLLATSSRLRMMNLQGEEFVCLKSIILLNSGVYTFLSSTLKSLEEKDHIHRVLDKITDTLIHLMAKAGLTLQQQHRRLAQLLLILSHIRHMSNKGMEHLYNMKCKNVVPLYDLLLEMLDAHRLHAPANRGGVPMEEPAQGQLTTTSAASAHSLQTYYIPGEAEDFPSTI
The assay can be described thus: Estrogen receptor binding, competitive with 3H-ethinyl estradiol in uterine cytosol. As to conditions: RBA relative to 17β-estradiol, infantile rabbit uterine cytosol, 0° C. The procedure: Statements about estrogen affinity are made by measuring the estrogen receptor binding.
Measuring the estrogen receptor binding is done by competitive binding of the ^3 H-labelled synthetic estrogen ethinyl estradiol and of the compounds to be tested in uterine cytosol of the infantile rabbit at 0° C. Reaction equilibrium and receptor saturation are the goal.
With the statement about the RBA values, the estrogen receptor affinity of the particular compound is characterized; taking into account certain prerequisites for in vitro investigations (such as a free 30H group), it is a measure for estrogen affinity (again, see Table 1).

Assay [3] has as its system peroxidation. As to conditions: literature statement; cited from earlier work.
In assay [4] the test system is LDL, isolated from human whole blood. Briefly: In vitro inhibition of LDL oxidation (Esterbauer et al), CuSO4-induced. As to conditions: 5 μmol test compound, 10 μmol CuSO4.

As to Vitamin E [reference compound], the IC50 in assay [1] was 132 µM. Same read-out and setting: with `C[C@]12CCC3=C(CCc4cc(O)ccc43)[C@]13C[C@@H]3C[C@@H]2O` [14β,15β-Methylene-8 dehydroestradiol, 14β,15β-methylene-8-dehydroestradiol] the figure was 1.9 µM. For the compound `C[C@]12CC[C@@H]3c4ccc(O)cc4C=C[C@H]3[C@@H]1C[C@@H](O)[C@@H]2O` [6-Dehydroestriol], the “Relative binding affinity to estrogen receptor” value (“Relative binding affinity” below) in assay [2] stood at 7.9%. The same compound yielded an IC50 in assay [1] of 45.6 µM.

With `C[C@]12CC[C@@H]3c4ccc(O)cc4CC[C@H]3[C@@H]1CC[C@@H]2O` [17β-Estradiol, reference compound], the “Inhibition of peroxidation in vitro and in vivo” value (shortened to “Inhibition of peroxidation”) in assay [3] is “inhibit peroxidation in vitro and in vivo”. In assay [4], the “LDL oxidation inhibition (prolongation of the lag phase in min)” value (“LDL oxidation inhibition” below) was 110 min. In assay [1], this compound returned an IC50 of 12.4 µM. For the compound `C[C@]12CC[C@@H]3c4ccc(O)cc4CC[C@H]3[C@@H]1C[C@@H](O)[C@@H]2O` [Estriol, reference compound], the “Relative binding affinity” value in assay [2] worked out at 10.3%. The “Inhibition of peroxidation” value in assay [3] is “inhibit peroxidation in vitro and in vivo”. Also, in assay [4], the “LDL oxidation inhibition” value is 45 min. This compound had an IC50 in assay [1] of 122 µM. Take `C[C@]12CC[C@@H]3c4cc(O)c(O)cc4CC[C@H]3[C@@H]1CC[C@@H]2O` [2-hydroxyestradiol]: the “Inhibition of peroxidation” value in assay [3] was “inhibit peroxidation in vitro and in vivo”. For `Cc1c(C)c2c(c(C)c1O)CCC(C)(CN1CCN(c3cc(N4CCCC4)nc(N4CCCC4)n3)CC1)O2` (stereo not shown) [Compound U-78517F, reference compound], in assay [4], the “LDL oxidation inhibition” value is listed as 70 min. In assay [1], this compound returned an IC50 of 1.8 µM. In turn, `C[C@]12CC[C@@H]3c4ccc(O)cc4CC[C@H]3[C@@]13C[C@H]3C[C@@H]2O` [14α,15α-Methylene estradiol] gave a half-inhibitory concentration (IC50) in assay [1] of 5 to 10 µM. For the compound `C[C@]12CC[C@@H]3c4ccc(O)cc4CC[C@H]3[C@@H]1CC[C@@]21CO1` [3-Hydroxy-1,3,5(10)-estratriene-17S-spirooxirane], the “LDL oxidation inhibition” value in assay [4] is 170 min. The compound also had an IC50 in assay [1] of 4.11 µM. Consider `C[C@]12CCC3=C(CCc4cc(O)ccc43)[C@@H]1CC[C@@H]2O` [8-Dehydroestradiol], for which the “Relative binding affinity” value in assay [2] was 59.6%. In addition, in assay [4], the “LDL oxidation inhibition” value came to 120 min. For the same compound, in assay [1], the IC50 came out at 1 µM.

Consider `CC(CO)[C@H]1CC[C@H]2[C@@H]3CCc4cc(O)ccc4[C@H]3CC[C@]12C` (stereo partly shown) [20-hydroxymethyl-3-hydroxy-19-norpregna-1,3,5(10)-triene], for which the “Relative binding affinity” value in assay [2] came to 22.5%. Also, 14.4 µM corresponded to half-maximal inhibition in assay [1] (IC50). For the compound `C[C@]12CCC3=C(CCc4cc(O)ccc43)[C@@]13C[C@H]3C[C@@H]2O` [14α,15α-Methylene-8-dehydroestradiol], in assay [1], the midpoint of inhibition, the IC50, lay at 0.9 µM. As to `C[C@]12CC=C3c4ccc(O)cc4CC[C@H]3[C@@H]1C[C@@H](O)[C@@H]2O` [9(11)-dehydroestriol], the “Relative binding affinity” value in assay [2] is on record as 7.5%. In assay [1], this compound returned an IC50 of 10.6 µM. In the case of `C[C@]12CCc3c(ccc4cc(O)ccc34)[C@@H]1CC[C@H]2O` [6,8-Didehydro-17α-estradiol], in assay [1], the IC50 is 5.1 µM.

In the case of `C[C@@]12CC[C@H]3c4ccc(O)cc4CC[C@@H]3[C@H]1CC[C@H]2O` [ent-Estradiol], the “LDL oxidation inhibition” value in assay [4] was 120 min. Further, it took 8.8 µM to reach half-maximal inhibition in assay [1] (IC50).

For `C[C@]12CCC3=C(CCc4cc(O)ccc43)[C@@H]1CC[C@H]2O` [8-Dehydro-17α-estradiol], the IC50 in assay [1] was determined as 4.1 µM. For the compound `C[C@]12CC=C3c4ccc(O)cc4CC[C@H]3[C@@H]1CC[C@@]21CO1` [3-Hydroxy-1,3,5(10),9(11)-estratetraene-17S-spirooxirane], the “LDL oxidation inhibition” value in assay [4] was determined as 210 min. 0.81 µM corresponded to half-maximal inhibition in assay [1] (IC50). Consider `COc1cc2c(cc1O)[C@H]1CC[C@]3(C)[C@@H](O)CC[C@H]3[C@@H]1CC2` [2-Hydroxyestradiol-3-methyl ether], for which half-maximal inhibition in assay [1] (IC50) was put at 3.2 µM.

For `C[C@]12CC[C@@H]3c4ccc(O)cc4CC[C@H]3[C@@H]1CC[C@H]2O` [17α-Estradiol], in assay [1], the IC50 is 8.9 µM. This IC50 is about 2.8-fold higher than that of the compound before. Consider `C[C@]12CC[C@@H]3c4ccc(O)cc4CC[C@H]3[C@@H]1CCC2=O` [estrone], for which the “Inhibition of peroxidation” value in assay [3] is “inhibit peroxidation in vitro and in vivo”.
